Laboratory results published in patent publication US7045533B2, “Naphthalene derivatives” (Novartis AG, priority 2000, dated 2006).

Key:
Wistar rats = assay: Test II: Neuropathic Pain Model (partial ligation of the sciatic nerve, mechanical hyperalgesia); format: in vivo; conditions: p.o.; dose necessary to produce 50% reversal of hyperalgesia; rat
Description: Test II: Neuropathic Pain Model
Hyperalgesia is examined in the model of neuropathic pain Induced by partial ligation of the sciatic nerve as described by Seltzer et al. (1990). Briefly, Wistar rats (120–140 g) are anaesthetised, the left sciatic nerve exposed at mid-thigh level through a small incision and ⅓ to ½ of the nerve thickness tightly ligated within a 7.0 silk suture. The wound is closed with a single muscle suture and skin clips and dusted with Aureomycin antibiotic powder. The animals are allowed to recover and used 12–15 days following surgery.
Mechanical hyperalgesia is assessed by measuring paw withdrawal thresholds to an increasing pressure stimulus placed onto the dorsal surface of the paw using an analgesymeter (Ugo-Basile, Milan) with a cut-off of 250 g. Withdrawal thresholds are measured on both the ipsilateral (ligated) and contralateral (unligated) paw prior to (predose) and then up to 6 h following drug or vehicle administration. Data are expressed as withdrawal threshold (g) and percentage reversal of hyperalgesia calculated according to the following formula: […]
Potency is expressed as D50 value, i.e. the dose of compound necessary to produce 50% reversal of hyperalgesia.

## CCCCCOc1ccc(S(=O)(=O)c2cccc3ccccc23)c2ccccc12
other
  melting point: 143 to 144 °C

## CCCCCOc1ccc(S(=O)(=O)N2CCCc3ccccc32)c2ccccc12
other
  melting point: 78 to 80 °C

## CCCCCOc1ccc(C(=O)c2cccc3ccccc23)c2ccccc12 [Example 1, naphthalen-1-yl-(4-pentyloxy-naphthalen-1-yl)-methanone]
Wistar rats
  D50 value in the neuropathic pain model: 0.18 mg/kg

## CCCCCOc1ccc([S+]([O-])c2cccc3ccccc23)c2ccccc12 (centres unmarked)
other
  melting point: 88 to 91 °C

## CCCCCOc1ccc(C(=O)Oc2cccc3ccccc23)c2ccccc12
other
  melting point: 95 to 100 °C
